Results filed as inconclusive are left out. The source made the active and inactive calls.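 Rule for the calls: active = valid dose-response fit whose half-maximal growth-inhibiting concentration is at or below a set limit above the top tested dose; inconclusive = flat fit with effect between 30 and 70%, or poor fit; inactive = half-maximal concentration above a set limit.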
test: antibacterial activity against Clostridioides difficile – 10-point retest, dose response (AID 1259246); conditions: Clostridioides difficile clinical isolate growth, OD600, 24 h; at 60 µM (top of the series)

Row | SMILES | activity change, negative = inhibition
1 | COCC#Cc1ccc2c(c1)O[C@H](CN(C)Cc1ccc3c(c1)OCO3)[C@H](C)CN([C@@H](C)CO)S2(=O)=O | 6.47% (inactive)
2 | COc1ccccc1CNC(=O)C[C@H]1C[C@H]2c3cc(NC(=O)NC4CCCC4)ccc3O[C@H]2[C@H](CO)O1 | -5.15% (inactive)
3 | C[C@H](CO)N1C[C@H](C)[C@@H](CN(C)S(C)(=O)=O)OCCCC[C@H](C)Oc2ccc(NC(=O)Nc3cccc4ccccc34)cc2C1=O | 9.57% (inactive)
4 | COc1ccccc1-c1ccc2c(c1)O[C@H](CN(C)Cc1ccc3c(c1)OCO3)[C@H](C)CN([C@H](C)CO)S2(=O)=O | -2.89% (inactive)

same assay, conditions: Clostridioides difficile clinical isolate growth, OD600, 24 h; at 120 µM (top of the series)

Row | SMILES | activity change, negative = inhibition
5 | C[C@@H]1CN([C@H](C)CO)C(=O)c2cccc(NC(=O)Nc3ccc(C(F)(F)F)cc3)c2O[C@H]1CN(C)S(=O)(=O)c1ccc(Cl)cc1 | 48.2% (inactive)
6 | C[C@@H]1CN([C@H](C)CO)S(=O)(=O)c2ccc(C3=CCCCC3)cc2O[C@H]1CN(C)Cc1cccnc1 | 19% (inactive)
7 | C[C@@H]1CN([C@H](C)CO)C(=O)c2cc(NC(=O)Nc3ccc4c(c3)OCO4)ccc2O[C@@H](C)CCCCO[C@H]1CN(C)S(=O)(=O)c1ccc(F)cc1 | 13.1% (inactive)
8 | Cc1ccc(-c2ccc3c(c2)O[C@H](CN(C)Cc2cccnc2)[C@@H](C)CN([C@@H](C)CO)S3(=O)=O)cc1 | 25.7% (inactive)
9 | COc1ccc(-c2ccc([C@H]3[C@H](C#N)N(C(=O)c4cccc(F)c4)[C@H]3CO)cc2)cc1 | 21.7% (inactive)
10 | CC(C)CC#Cc1ccc2c(c1)O[C@H](CN(C)Cc1ccccc1F)[C@H](C)CN([C@H](C)CO)S2(=O)=O | 21.7% (inactive)
11 | COc1ccc(NC(=O)Nc2ccc3c(c2)[C@H]2C[C@H](CC(=O)NCc4ccccc4F)O[C@@H](CO)[C@H]2O3)cc1 | 3.92% (inactive)
12 | C[C@@H]1CN([C@H](C)CO)C(=O)c2cccc(NC(=O)Nc3ccc(C(F)(F)F)cc3)c2O[C@H]1CN(C)Cc1ccncc1 | 56.1% (inactive)
13 | CNC[C@H]1Oc2c(N)cccc2C(=O)N([C@@H](C)CO)C[C@H]1C | -0.016% (inactive)
14 | Cc1ccc(S(=O)(=O)N[C@H]2CC[C@H](CCNC(=O)c3ccc4c(c3)OCO4)O[C@H]2CO)cc1 | -3.6% (inactive)
15 | O=C(C[C@H]1C[C@@H]2c3cc(NC(=O)NC4CCCC4)ccc3O[C@@H]2[C@@H](CO)O1)NCc1ccc2c(c1)OCO2 | -10.4% (inactive)
16 | C[C@@H]1CN([C@@H](C)CO)C(=O)c2cccc(NC(=O)Nc3ccc(C(F)(F)F)cc3)c2O[C@@H]1CN(C)S(=O)(=O)c1ccc(Cl)cc1 | 22.7% (inactive)
17 | Cc1ccc(S(=O)(=O)N[C@@H]2CC[C@H](CCNS(=O)(=O)Cc3ccccc3)O[C@H]2CO)cc1 | -2.21% (inactive)
18 | CO[C@H]1CN(C)C(=O)c2ccc(NC(=O)c3ccc(-c4ccccc4)cc3)cc2OC[C@H](C)NC[C@@H]1C | 5.28% (inactive)
19 | COc1ccccc1C#Cc1ccc([C@H]2[C@@H](CO)N(C(=O)C3CC3)[C@H]2C#N)cc1 | 27.5% (inactive)

same assay, conditions: Clostridioides difficile clinical isolate growth, OD600, 24 h; at 135 µM (top of the series)

Row | SMILES | activity change, negative = inhibition
20 | C[C@@H]1CN([C@@H](C)CO)C(=O)Cc2cc(NS(C)(=O)=O)ccc2O[C@@H]1CN(C)Cc1ccc(Oc2ccccc2)cc1 | 7.12% (inactive)
21 | C[C@@H]1CN([C@@H](C)CO)C(=O)Cc2cc(NS(C)(=O)=O)ccc2O[C@@H]1CN(C)Cc1ccc(-c2ccccc2)cc1 | 16.9% (inactive)
22 | C[C@@H]1CN([C@H](C)CO)C(=O)Cc2cc(NC(=O)Nc3ccccc3)ccc2O[C@@H]1CN(C)Cc1ccc(-c2ccccc2)cc1 | 12.7% (inactive)
23 | C[C@@H]1CCCCO[C@@H](CN(C)S(=O)(=O)c2ccc(F)cc2)[C@@H](C)CN([C@H](C)CO)C(=O)c2cc(NC(=O)Nc3cccc4ccccc34)ccc2O1 | 14.6% (inactive)
24 | C[C@@H]1CN([C@@H](C)CO)C(=O)Cc2cc(NC(=O)CCC(F)(F)F)ccc2O[C@H]1CN(C)Cc1ccc(Oc2ccccc2)cc1 | 8.79% (inactive)
